Reference: patent publication US11701377B2, “Methods for treating cancers by prodrugs of clofarabine” (priority 2016, dated 2023)

What was measured:
[1] = tested on: human K562 chronic myelogenous leukemia cell line; experiment: In Vitro Anti-proliferative Assay Using Human K562 Leukemia Cell Line; type: cell-based; details: K562 cells, 72 hours, 37° C., 5% CO2, triplicates, cell viability
Method: Method H: In Vitro Anti-proliferative Assay Using Human K562 Leukemia Cell Line. A representative compound (Example 1, Compound 3) was assessed for its anti-proliferative activity against human K562 chronic myelogenous leukemia cell line at various concentrations ranging from 10 μM to 0.005 μM in triplicates. Incubations were carried out at 37° C., 5% CO2, under humidified atmosphere for 72 hours. After incubation, cell viability was examined.

[2] = In Vitro Metabolic Conversion Assay Using Human Plasma; type: in vitro ADME; details: incubation with human plasma at 15 µg/mL, 37° C., 60 minutes, HPLC
Method: Method F: In Vitro Metabolic Conversion Assay Using Human Plasma. A representative compound (Example 1, Compound 3) was incubated with human plasma at 15 µg/mL. Incubations were carried out at 37° C. in a shaker water bath. Samples were taken at 0, 10, 30 and 60 minutes, quenched with 25 μL of trifluoroacetic acid, and then centrifuged at 25,000 g for 3 minutes at 4° C. The supernatant of each sample was collected and analyzed using HPLC to monitor the formation of clofarabine. FIG. 1 illustrates the results for incubations performed at 37° C.

IC50 [1]: 324 ± 18 nM
SMILES: CCOC(=O)OC[C@H]1O[C@@H](n2cnc3c(N)nc(Cl)nc32)[C@@H](F)[C@@H]1O [Compound 3, (2R,3R,4S,5R)-5-(6-Amino-2-chloropurin-9-yl)-2-(ethoxycarbonyloxymethyl)-4-fluoro-oxolan-3-ol]
metabolic conversion in human plasma (depletion of prodrug, formation of clofarabine) [2]: depletion of 3 was observed along with the formation of clofarabine as its metabolite
